This note sets out measurements from patent publication US20260317356A1, “SMALL MOLECULE MODULATORS OF OGG1” (AZKARRA THERAPEUTICS, INC., priority 2023, published 2026).

Bounds are passed on as bounds.

Chain of hOGG1 (O15527 12-323): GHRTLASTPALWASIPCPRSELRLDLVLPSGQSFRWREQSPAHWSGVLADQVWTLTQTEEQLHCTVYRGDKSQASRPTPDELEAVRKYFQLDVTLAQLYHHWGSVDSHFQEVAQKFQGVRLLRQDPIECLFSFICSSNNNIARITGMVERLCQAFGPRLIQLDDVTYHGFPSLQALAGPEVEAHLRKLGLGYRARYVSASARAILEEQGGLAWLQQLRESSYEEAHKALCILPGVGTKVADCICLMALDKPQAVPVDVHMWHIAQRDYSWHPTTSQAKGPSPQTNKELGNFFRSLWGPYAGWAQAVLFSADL

This assay concerns the target hOGG1 (Homo sapiens, UniProt O15527). Put plainly: Biochemical fluorescence assay to measure enzymatic activity of hOGG1 (OGG1/APEX IC50). Further details: Protein His-hOGG1 (12-323) was prepared; His (N); host or cells: E. coli. The settings on record: 1 nM OGG1+2 nM APEX+6 nM dsDNA (8-oxo-dG substrate); pH 7.5; RT 40 min; read-out: OGG1/APEX IC50. As to the method: Biological Example 1: Biochemical Assay to Measure Enzymatic Activity of hOGG1 (OGG1/APEX IC50)
The reported fluorescence-based assay (Donley et al ACS Chem Biol 2015; 10 (10), 2334-2343) was modified to include hAPE1/APEX1 protein. The oligonucleotide substrate with 8-oxo-dG lesion at X was prepared (LGC Biosearch, Petaluma, CA):
Protein His-hOGG1 (12-323) was prepared by Chempartner Corporation via E. coliexpression and purification by Ni-NTA and S200 column to afford 95% purity by SDS-PAGE and SEC-HPLC analysis and hAPE1/APEX1 was purchased (SinoBiological). The assay was run in 384-well plates following the general procedure: (1) compound dilution; (2) addition of hOGG1/APEX1 to compound wells; (3) addition of DNA substrate to compound wells; (4) read Ex520/Em600 (TAMRA) fluorescence signal after 40 minutes; (5) calculate % inhibition/compound concentration; (6) calculate dose-response curve and IC50 value.
• (1) 20 mM of compound solution was prepared in DMSO; • (2) Compounds were diluted to 10 mM in DMSO in ECHO Source plate (Labcyte PP-0200), by mixing […] DMSO; • (3) 4× dilution of compounds, for 10 points, by mixing […] DMSO; and • (4) Dispensed 150 nL compounds to assay plate (Corning 3573) in column 3-22. Dispensed 150 nL DMSO to Min and Max control wells in column 1-2 and column 23-24.
• (1) Assay buffer was prepared (20 mM Tris pH 7.5, 100 mM KCl, 0.1% BSA, 0.01% Tween). • (2) […] buffer was added to Min control wells (Column 1-2). • (3) Enzyme was diluted to 2× with buffer (2 nM OGG1+4 nM APEX1). Dispensed […] (except Min control wells). Shake at 500 rpm at RT for 20 min. • (4) DNA substrate diluted to 2× with buffer (12 nM). Dispensed […]. Final concentration: 1 nM OGG1+2 nM APEX+6 nM dsDNA. Shake at RT for 40 min. • (5) Ex520/Em600 (TAMRA) was read.
• (1) Calculated respective mean of Max and Min control wells. • (2) Converted data to percentage inhibition.
Inhibition (%)=(Max mean−value)/(Max mean−Min mean)×100% • (3) Calculated sigmoidal curve (3-parameter) and IC50 (using GraphPad Prism software).
With `COc1cc(NC(=O)[C@]2(C)CC[C@H](N3Cc4c(C)cccc4NC3=O)CC2)ccc1C` (single isomer, unassigned) [Example 101, (1s,4s)-N-(3-methoxy-4-methylphenyl)-1-methyl-4-(5-methyl-2-oxo-1,2-dihydroquinazolin-3(4H)-yl)cyclohexanecarboxamide], the IC50 was below 0.1 µM. The result for `COc1cc(NC(=O)[C@]2(C)CC[C@@H](N3Cc4c(C)cccc4NC3=O)CC2)ccc1C` (single isomer, unassigned) [Example 102, (1r,4r)-N-(3-methoxy-4-methylphenyl)-1-methyl-4-(5-methyl-2-oxo-1,2-dihydroquinazolin-3(4H)-yl)cyclohexanecarboxamide] reads 1 to 10 µM.

For the molecule `COc1ccc(NC(=O)[C@]2(C)CC[C@@H](N3Cc4c(C)cccc4NC3=O)CC2)cc1Cl` (single isomer, unassigned) [Example 104, (1r,4r)-N-(3-chloro-4-methoxyphenyl)-1-methyl-4-(5-methyl-2-oxo-1,2-dihydroquinazolin-3(4H)-yl)cyclohexanecarboxamide], the IC50 was in the range of 1 to 10 µM. With `COc1ccc(NC(=O)[C@]2(C)CC[C@H](N3Cc4c(C)cccc4NC3=O)CC2)cc1C` (single isomer, unassigned) [Example 105, (1s,4s)-N-(4-methoxy-3-methylphenyl)-1-methyl-4-(5-methyl-2-oxo-1,2-dihydroquinazolin-3(4H)-yl)cyclohexanecarboxamide] the figure was below 0.1 µM. With `COc1ccc(NC(=O)[C@]2(C)CC[C@@H](N3Cc4c(C)cccc4NC3=O)CC2)cc1C` (single isomer, unassigned) [Example 106, (1r,4r)-N-(4-methoxy-3-methylphenyl)-1-methyl-4-(5-methyl-2-oxo-1,2-dihydroquinazolin-3(4H)-yl)cyclohexanecarboxamide] the figure was 1 to 10 µM; with `COc1ccc(NC(=O)[C@]2(C)CC[C@H](N3Cc4c(C)cccc4NC3=O)CC2)cc1C#N` (single isomer, unassigned) [Example 107, (1s,4s)-N-(3-cyano-4-methoxyphenyl)-1-methyl-4-(5-methyl-2-oxo-1,2-dihydroquinazolin-3(4H)-yl)cyclohexanecarboxamide], below 0.1 µM. With `COc1ccc(NC(=O)[C@]2(C)CC[C@@H](N3Cc4c(C)cccc4NC3=O)CC2)cc1C#N` (single isomer, unassigned) [Example 108, (1r,4r)-N-(3-cyano-4-methoxyphenyl)-1-methyl-4-(5-methyl-2-oxo-1,2-dihydroquinazolin-3(4H)-yl)cyclohexanecarboxamide], the IC50 is above 10 µM. With `COc1cc(NC(=O)[C@H]2CC[C@H](n3[nH]c4c(Br)cccc4c3=O)CC2)ccc1C` (single isomer, unassigned) [Example 159, (1r,4r)-4-(7-Bromo-3-oxo-1H-indazol-2(3H)-yl)-N-(3-methoxy-4-methylphenyl)cyclohexanecarboxamide], the IC50 was above 10 µM. With `COc1cc(NC(=O)[C@H]2CC[C@@H](n3[nH]c4c(Br)cccc4c3=O)CC2)ccc1C` (single isomer, unassigned) [Example 160, (1s,4s)-4-(7-Bromo-3-oxo-1H-indazol-2(3H)-yl)-N-(3-methoxy-4-methylphenyl)cyclohexanecarboxamide] the figure was 0.1 to 1 µM; with `COc1cc(NC(=O)C2C[C@@H]3[C@H](C2)[C@H]3N2Cc3c(Br)cccc3C2=O)ccc1C` (single isomer, unassigned) [Example 247], above 10 µM. The result for `COc1cc(NC(=O)[C@@H]2[C@@H]3C[C@H](N4Cc5c(Br)cccc5C4=O)C[C@@H]32)ccc1C` (single isomer, unassigned) [Example 267] reads above 10 µM; that for `COc1cc(NC(=O)[C@H]2[C@@H]3C[C@H](N4Cc5c(Br)cccc5C4=O)C[C@@H]32)ccc1C` (single isomer, unassigned) [Example 268], 0.1 to 1 µM. As for `COc1cc(NC(=O)[C@@H]2[C@@H]3C[C@@H](N4Cc5c(Br)cccc5C4=O)C[C@@H]32)ccc1C` (single isomer, unassigned) [Example 269], the IC50 lay in the range of 1 to 10 µM.

Take `COc1cc(NC(=O)[C@H]2[C@@H]3C[C@@H](N4Cc5c(Br)cccc5C4=O)C[C@@H]32)ccc1C` (single isomer, unassigned) [Example 270]: the IC50 was above 10 µM. The result for `COc1cc(NC(=O)[C@H]2CC[C@@H](N3Cc4c(C)cc(CN5CC[C@H](O)C5)cc4NC3=O)CC2)ccc1C` (stereo in doubt) [Example 98, (1R,4s)-4-(7-(((S)-3-hydroxypyrrolidin-1-yl)methyl)-5-methyl-2-oxo-1,2-dihydroquinazolin-3(4H)-yl)-N-(3-methoxy-4-methylphenyl)cyclohexanecarboxamide] reads below 0.1 µM; that for `COCc1ccc(C)c2c1NC(=O)N([C@H]1CC[C@@H](C(=O)Nc3ccc(C)c(OC)c3)CC1)C2` [Example 1, (1s,4s)-N-(3-Methoxy-4-methylphenyl)-4-(8-(methoxymethyl)-5-methyl-2-oxo-1,2-dihydroquinazolin-3(4H)-yl)cyclohexanecarboxamide], 1 to 10 µM. With `COc1cc(NC(=O)[C@H]2CC[C@@H](N3Cc4c(C)cnc(CNS(C)(=O)=O)c4NC3=O)CC2)ccc1C` [Example 18, (1s,4s)-N-(3-Methoxy-4-methylphenyl)-4-(5-methyl-8-(methylsulfonamidomethyl)-2-oxo-1,2-dihydropyrido[3,4-d]pyrimidin-3(4H)-yl)cyclohexanecarboxamideoxamide] the figure was below 0.1 µM; with `COc1cc(NC(=O)[C@H]2CC[C@@H](N3Cc4c(C)cnc(CN)c4NC3=O)CC2)ccc1C` [Example 20, (1s,4s)-4-(8-(Aminomethyl)-5-methyl-2-oxo-1,2-dihydropyrido[3,4-d]pyrimidin-3(4H)-yl)-N-(3-methoxy-4-methylphenyl)cyclohexanecarboxamide], below 0.1 µM. The result for `COc1cc(NC(=O)[C@H]2CC[C@@H](N3Cc4c(C)ccc(OCCN(C)C)c4NC3=O)CC2)ccc1C` [Example 21, (1s,4s)-4-(8-(2-(Dimethylamino)ethoxy)-5-methyl-2-oxo-1,2-dihydroquinazolin-3(4H)-yl)-N-(3-methoxy-4-methylphenyl)cyclohexanecarboxamide] reads below 0.1 µM; that for `COc1cc(NC(=O)[C@H]2CC[C@@H](N3Cc4c(C)cnc(C#N)c4NC3=O)CC2)ccc1C` [Example 22, (1s,4s)-4-(8-Cyano-5-methyl-2-oxo-1,2-dihydropyrido[3,4-d]pyrimidin-3(4H)-yl)-N-(3-methoxy-4-methylphenyl)cyclohexanecarboxamide], below 0.1 µM. As to `COc1cc(NC(=O)[C@H]2CC[C@@H](N3Cc4c(C)ccc(OCC5(C)COC5)c4NC3=O)CC2)ccc1C` [Example 23, (1s,4s)-N-(3-Methoxy-4-methylphenyl)-4-(5-methyl-8-((3-methyloxetan-3-yl)methoxy)-2-oxo-1,2-dihydroquinazolin-3(4H)-yl)cyclohexanecarboxamide], the IC50 fell in the range of 0.1 to 1 µM.

For the molecule `COc1cc(NC(=O)[C@H]2CC[C@@H](N3Cc4c(C)ccc(CNS(C)(=O)=O)c4NC3=O)CC2)ccc1C` [Example 24, (1s,4s)-N-(3-Methoxy-4-methylphenyl)-4-(5-methyl-8-(methylsulfonamidomethyl)-2-oxo-1,2-dihydroquinazolin-3(4H)-yl)cyclohexanecarboxamide], the IC50 is below 0.1 µM. With `COc1cc(NC(=O)[C@H]2CC[C@@H](N3Cc4c(C)ccc(C)c4NC3=O)CC2)ccc1C` [Example 25, (1s,4s)-4-(5,8-Dimethyl-2-oxo-1,2-dihydroquinazolin-3(4H)-yl)-N-(3-methoxy-4-methylphenyl)cyclohexanecarboxamide] the figure was below 0.1 µM. The result for `COc1cc(NC(=O)[C@H]2CC[C@@H](N3Cc4c(C)cc(CNS(C)(=O)=O)cc4NC3=O)CC2)ccc1C` [Example 26, (1s,4s)-N-(3-Methoxy-4-methylphenyl)-4-(5-methyl-7-(methylsulfonamidomethyl)-2-oxo-1,2-dihydroquinazolin-3(4H)-yl)cyclohexanecarboxamide] reads below 0.1 µM.
